Test results reported in US10710986B2, “PD-1/PD-L1 inhibitors” (Gilead Sciences, Inc., priority 2018, dated 2020).
pIC50: −log10 of the molar value.

target: PD-1/PD-L1 (Homo sapiens (Human), UniProt Q9NZQ7); test: PD-1/PD-L1 biochemical protein-protein interaction assay (ALPHA); conditions: 0.3 nM His tagged PD-L1, 2.5 nM biotinylated Fc-PD-1, 60 minutes at 25° C., read-out: IC50 PD-L1-PD1
Sequence (Q9NZQ7 19-238): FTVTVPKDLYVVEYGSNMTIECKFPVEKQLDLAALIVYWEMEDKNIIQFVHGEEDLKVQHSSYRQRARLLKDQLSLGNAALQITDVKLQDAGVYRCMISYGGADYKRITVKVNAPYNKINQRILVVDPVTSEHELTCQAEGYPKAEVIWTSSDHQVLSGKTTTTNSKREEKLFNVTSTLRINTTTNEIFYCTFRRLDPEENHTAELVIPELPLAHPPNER

SMILES	pIC50
COC[C@@H]1CC[C@H]1NCc1ncc(-c2cccc(-c3cccc(-c4cnc(CNC[C@@H]5CCC(=O)N5)c(OC)n4)c3Cl)c2Cl)nc1OC [compound 215]	9.96
COc1nc(-c2cccc(-c3cccc(-c4cnc(CN5CC[C@@H]6CC[C@@H](O)[C@@H]65)c(OC)n4)c3Cl)c2Cl)cnc1CNC[C@@H]1CCC(=O)N1 [compound 216]	9.68
COc1nc(-c2cccc(-c3cccc(-c4cnc(CNC5CC(CC(N)=O)C5)c(OC)n4)c3Cl)c2Cl)cnc1CNC[C@@H]1CCC(=O)N1 (stereo partly shown) [compound 217]	9.85
COc1nc(-c2cccc(-c3cccc(-c4cnc(CNCC5(S(C)(=O)=O)CC5)c(OC)n4)c3Cl)c2Cl)cnc1CNC[C@@H]1CCC(=O)N1 [compound 218]	9.85
COc1nc(-c2cccc(-c3cccc(-c4cnc(CNC[C@@H]5C[C@H]5c5cccnc5)c(OC)n4)c3Cl)c2Cl)cnc1CNC[C@@H]1CCC(=O)N1 [compound 219]	9.72
COc1nc(-c2cccc(-c3cccc(-c4cnc(CNC[C@@H]5CCC(=O)N5)c(OC)n4)c3Cl)c2Cl)cnc1CNCC1CC1CC#N (stereo partly shown) [compound 220]	9.44
COC[C@H]1C[C@@H](NCc2ncc(-c3cccc(-c4cccc(-c5cnc(CNC[C@@H]6CCC(=O)N6)c(OC)n5)c4Cl)c3Cl)nc2OC)C1 [compound 221]	9.64
COc1nc(-c2cccc(-c3cccc(-c4cnc(CNC5CCC([S+](C)[O-])C5)c(OC)n4)c3Cl)c2Cl)cnc1CNC[C@@H]1CCC(=O)N1 (stereo partly shown) [compound 222]	9.54
COc1nc(-c2cccc(-c3cccc(-c4cnc(CN[C@@H]5CCOC[C@H]5C)c(OC)n4)c3Cl)c2Cl)cnc1CNC[C@@H]1CCC(=O)N1 [compound 223]	9.23
COc1nc(-c2cccc(-c3cccc(-c4cnc(CN5C[C@@H](OC)C[C@H]5CO)c(OC)n4)c3Cl)c2Cl)cnc1CNC[C@@H]1CCC(=O)N1 [compound 224]	9.41
COCCC1CN(Cc2ncc(-c3cccc(-c4cccc(-c5cnc(CNC[C@@H]6CCC(=O)N6)c(OC)n5)c4Cl)c3Cl)nc2OC)C1 [compound 225]	9.54
CC[C@@H]1OCC[C@H]1NCc1ncc(-c2cccc(-c3cccc(-c4cnc(CNC[C@@H]5CCC(=O)N5)c(OC)n4)c3Cl)c2Cl)nc1OC [compound 226]	9.32
COc1nc(-c2cccc(-c3cccc(-c4cnc(CNC[C@@H]5CCC(=O)N5)c(OC)n4)c3Cl)c2Cl)cnc1CNCC1CCN(C(C)=O)C1 (stereo partly shown) [compound 227]	9.87
COc1nc(-c2cccc(-c3cccc(-c4cnc(CNC[C@H]5C[C@@H](OC)C5)c(OC)n4)c3Cl)c2Cl)cnc1CNC[C@@H]1CCC(=O)N1 [compound 228]	9.77
COc1nc(-c2cccc(-c3cccc(-c4cnc(CN5CC[C@@H](C)[C@@H](O)C5)c(OC)n4)c3Cl)c2Cl)cnc1CNC[C@@H]1CCC(=O)N1 [compound 229]	9.64
COc1nc(-c2cccc(-c3cccc(-c4cnc(CN5C[C@@H]6CCC[C@]6(CO)C5)c(OC)n4)c3Cl)c2Cl)cnc1CNC[C@@H]1CCC(=O)N1 [compound 230]	9.48
COc1nc(-c2cccc(-c3cccc(-c4cnc(CN5CC[C@@H](O)[C@H](C)C5)c(OC)n4)c3Cl)c2Cl)cnc1CNC[C@@H]1CCC(=O)N1 [compound 231]	10.19
COc1nc(-c2cccc(-c3cccc(-c4cnc(CN5CCC6(CCOC6=O)C5)c(OC)n4)c3Cl)c2Cl)cnc1CNC[C@@H]1CCC(=O)N1 (stereo partly shown) [compound 232]	9.51
CCO[C@H]1C[C@H](NCc2ncc(-c3cccc(-c4cccc(-c5cnc(CNC[C@@H]6CCC(=O)N6)c(OC)n5)c4Cl)c3Cl)nc2OC)C1 [compound 233]	9.35
COc1nc(-c2cccc(-c3cccc(-c4cnc(CN5CC6(CCOC6)C5)c(OC)n4)c3Cl)c2Cl)cnc1CNC[C@@H]1CCC(=O)N1 [compound 234]	10.06

SMILES	pIC50
COc1nc(-c2cccc(-c3cccc(-c4cnc(CNC[C@@H]5CCC(=O)N5)c(OC)n4)c3Cl)c2Cl)cnc1CNCCC1CNC(=O)C1 (stereo partly shown) [compound 235]	9.97
COc1nc(-c2cccc(-c3cccc(-c4cnc(CNC[C@@H]5CCC(=O)N5)c(OC)n4)c3Cl)c2Cl)cnc1CNCCC1CCCO1 (stereo partly shown) [compound 236]	10.19
COc1nc(-c2cccc(-c3cccc(-c4cnc(CNC(CCO)C5CC5)c(OC)n4)c3Cl)c2Cl)cnc1CNC[C@@H]1CCC(=O)N1 (stereo partly shown) [compound 237]	10.19
COCC(NCc1ncc(-c2cccc(-c3cccc(-c4cnc(CNC[C@@H]5CCC(=O)N5)c(OC)n4)c3Cl)c2Cl)nc1OC)C1CC1 (stereo partly shown) [compound 238]	9.53
COc1nc(-c2cccc(-c3cccc(-c4cnc(CN5CC(F)(CO)C5)c(OC)n4)c3Cl)c2Cl)cnc1CN1CC(F)(CO)C1 [compound 239]	9.52
COc1nc(-c2cccc(-c3cccc(-c4cnc(CN5CC(O)(CO)C5)c(OC)n4)c3Cl)c2Cl)cnc1CN1CC(O)(CO)C1 [compound 240]	10.05
COc1nc(-c2cccc(-c3cccc(-c4cnc(CN[C@H]5C[C@@](C)(O)C5)c(OC)n4)c3Cl)c2Cl)cnc1CN[C@H]1C[C@@](C)(O)C1 [compound 241]	9.57
COc1nc(-c2cccc(-c3cccc(-c4cnc(CNC[C@H]5C[C@H](O)C5)c(OC)n4)c3Cl)c2Cl)cnc1CNC[C@H]1C[C@H](O)C1 [compound 242]	9.85
COc1nc(-c2cccc(-c3cccc(-c4cnc(CNC[C@H]5C[C@@H](O)C5)c(OC)n4)c3Cl)c2Cl)cnc1CNC[C@H]1C[C@@H](O)C1 [compound 243]	9.96
COc1nc(-c2cccc(-c3cccc(-c4cnc(CNC[C@@H]5CC(C)(C)C(=O)N5)c(OC)n4)c3Cl)c2Cl)cnc1CNC[C@@H]1CC(C)(C)C(=O)N1 [compound 244]	10.10
COc1nc(-c2cccc(-c3cccc(-c4cnc(CNC[C@@H]5CC(C)(C)C(=O)N5)c(OC)n4)c3Cl)c2Cl)cnc1CNC[C@@H]1CCC(=O)N1 [compound 245]	9.82
COc1nc(-c2cccc(-c3cccc(-c4cnc(CNC[C@@H]5COC(=O)N5)c(OC)n4)c3Cl)c2Cl)cnc1CNC[C@@H]1CCC(=O)N1 [compound 246]	9.68
COc1nc(-c2cccc(-c3cccc(-c4cnc(CNC(CO)CCF)c(OC)n4)c3Cl)c2Cl)cnc1CNC[C@@H]1CCC(=O)N1 (stereo partly shown) [compound 247]	9.89
COc1nc(-c2cccc(-c3cccc(-c4cnc(CNC(CO)CF)c(OC)n4)c3Cl)c2Cl)cnc1CNC[C@@H]1CCC(=O)N1 (stereo partly shown) [compound 248]	9.74
COCC(NCc1ncc(-c2cccc(-c3cccc(-c4cnc(CNC[C@@H]5CCC(=O)N5)c(OC)n4)c3Cl)c2Cl)nc1OC)C(F)(F)F (stereo partly shown) [compound 249]	8.57
COc1nc(-c2cccc(-c3cccc(-c4cnc(CN5CCN[C@@H](C)C5)c(OC)n4)c3Cl)c2Cl)cnc1CNC[C@@H]1CCC(=O)N1 [compound 250]	9.92
COc1nc(-c2cccc(-c3cccc(-c4cnc(CN5CCN[C@H](C)C5)c(OC)n4)c3Cl)c2Cl)cnc1CNC[C@@H]1CCC(=O)N1 [compound 251]	10.15
COc1nc(-c2cccc(-c3cccc(-c4cnc(CN5CC(F)(CO)C5)c(OC)n4)c3Cl)c2Cl)cnc1CNC[C@@H]1CCC(=O)N1 [compound 252]	10.22
COc1nc(-c2cccc(-c3cccc(-c4cnc(CN5CC(O)(CO)C5)c(OC)n4)c3Cl)c2Cl)cnc1CNC[C@@H]1CCC(=O)N1 [compound 253]	10.05
COc1nc(-c2cccc(-c3cccc(-c4cnc(CNC[C@@H]5CCC(=O)N5)c(OC)n4)c3Cl)c2Cl)cnc1CNC[C@H]1CCN1 [compound 254]	9.96
